Earlier results on one molecule are cited in patent publication US20260356826A1, “SALTS OF AMINO QUINAZOLINE DERIVATIVES” (CHIESI FARMACEUTICI S.P.A., priority 2023, published 2026).

Molecules are shown by their SMILES.

In this series the test system is P2X3. Conditions: disclosed in WO2020239951 A1; cited from earlier work.

Consider `COc1cc(-c2ccc(F)cn2)cc2c(N[C@H](C)c3noc(C)n3)ncnc12` [Compound A, (R)-6-(5-fluoropyridin-2-yl)-8-methoxy-N-(1-(5-methyl-1,2,4-oxadiazol-3-yl)ethyl)quinazolin-4-amine], for which the P2X3 inhibition entry was “potent and selective P2X3 inhibitor”.
